Measurements reported in patent publication US20080108710A1, “High-Potency Sweetener Composition With Preservative and Compositions Sweetened Therewith” (THE COCA-COLA COMPANY, priority 2006, published 2008).

Key:
[1] = tested on: panel of experts in the sensory evaluation of foods and beverages; test: Sensory evaluation of sweetness linger and taste characteristics; type: in vivo; set-up: key: 0: no sweetness linger; 1: very slight sweetness linger; 2: slight sweetness linger; 3: moderate sweetness linger; 4: moderately high sweetness linger; 5: high sweetness linger
Method: Sensory evaluation of the samples prepared in Example Set G was carried out under the following protocol, similar to that described hereinabove. In this test protocol, none of the samples were swallowed. All samples were expectorated and the mouth was rinsed with water after the tasting. Immediately upon sensing maximal sweetness, the sample was expectorated, the mouth was rinsed with water and the rate of sweetness decay (“Sweetness Linger”) was measured, where attention was focused on the sweetness 3-4 min after the water rinse. After sample tasting was complete, a salty oyster cracker was chewed followed by a water rinse, and at least 5 minutes followed before tasting the next sample. […]
Sweet taste improving compositions were combined with a REBA solution to determine their effect on sweetness linger. Screening of the initial sample, or further dilutions, allowed identification of concentrations which were just above-threshold, herein defined as “near-threshold concentrations.” The near-threshold additive concentrations, a 6- to 100-fold higher higher additive concentration (depending on the off-taste intensity), and a mid-level additive concentration (halfway between the near-threshold and higher additive concentration) were evaluated to determine the effect on sweetness linger of a REBA solution. […]

[2] = Rate of dissolution of rebaudioside A polymorph and amorphous forms in H2O; type: physicochemical
Text: The purification of rebaudioside A by crystallization as described above results in the formation of at least three different polymorphs: Form 1: a rebaudioside A hydrate; Form 2: an anhydrous rebaudioside A; and Form 3: a rebaudioside A solvate. In addition to the at least three polymorph forms of rebaudioside A, the purification of rebaudioside A may result in the formation of an amorphous form of rebaudioside A, Form 4. The aqueous organic solution and temperature of the purification process influence the resulting polymorph and amorphous forms in the substantially pure rebaudioside A composition. FIGS. 1-5 are exemplary powder x-ray diffraction (XRPD) scans of the polymorph and amorphous forms of rebaudioside A: Form 1 (hydrate), Form 2 (anhydrate), Form 3A (methanol solvate), Form 3B (ethanol solvate), and Form 4 (amorphous), respectively.

| Substance | Sweetness Linger ([1]; Example Set G: citric acid/potassium citrate composition equivalent to diet lemon-lime beverage, scale 0-5, sweetness 3-4 min after water rinse) | Sweetness Linger ([1]; Example Set H: carbon-treated water with phosphoric acid (75%) to pH 2.4-2.5, scale 0-5) | Rate of dissolution in H2O at 25° C. [2] |
| --- | --- | --- | --- |
| rebaudioside A | 5 | 5 | – |
| rebaudioside A [Form 1] | – | – | Very low (<0.2%/60 %/60 minutes |
| rebaudioside A [Form 2] | – | – | Intermediate (<30%/5 %/5 minutes |
